Assay results reported in patent US5010084A, “Imidazoquinolone derivatives” (Kyowa Hakko Kogyo Co., Ltd., priority 1989, dated 1991).
pIC50: −log10 of the molar value. Where a name gives a salt, the structure may show the parent alone.

Experiments:
[1] = system: zig-zag strips of the tracheae (passively sensitized guinea pigs); assay: Effects on passive Schultz-Dale reaction (broncho-dilatory effects); format: cell-based, guinea pig (male Hartley); conditions: Cavia porcellus; guinea pig trachea contracted with antigen EWA 1 μg/ml, 37° C., cumulative concentration-relaxation curves; read-out: Passive Schultz-Dale reaction (IC50), concentration of 50% relaxation rate
Method: Male Hartley guinea pigs weighing 350 to 500 g were passively sensitized by intraperitoneal injection of rabbit anti-egg white albumin (EWA) serum prepared by the method of Eda et al. [Folia pharmacol., Japon 66, 237, (1970)]. After 24 hours, the guinea pigs were stunned and exsanguinated, and then tracheae were removed. The zig-zag strips of the tracheae were prepared by the method of Emmerson and Mackay [J. Pharm. Pharmacol., 31, 798, (1979)]. The strips were suspended in Krebs-Henseleit solution at 37° C. under aeration of a mixed gas of 95% oxygen and 5% carbon dioxide, and equilibrated for one hour. Antigen (EWA) was then introduced in the solution (final concentration; 1 μg/ml), and the contraction was measured by […] (TD-112s, made by Nihon Kohden K.K., Japan) and recorded on a recorder (Type 3066, made by Yokogawa-Hokushin Denki, K.K. Japan). After the contraction curves reached plateau, the compounds were successively added in order to get cumulative concentration-relaxation curves.

[2] = system: passively sensitized guinea pigs, experimental asthma; assay: Effects on experimental asthma; format: in vivo, guinea pig (male Hartley); conditions: guinea pig, 50 mg/kg orally, 1 hour before aerosol of 1.5% EWA; diphenhydramine and propranolol pretreated; control 254
Method: Guinea pigs were passively sensitized as follows. Male Hartley guinea pigs weighing 350 to 500g were intraperitoneally injected with 1 ml of rabbit EWA serum prepared by the method of Eda et al. [Folia pharmacol., Japon, 66, 237 (1970)]. The animals were treated with intraperitoneal injection of diphenhydramine (20 mg/kg) and propranolol (5 mg/kg), 30 minutes before administration of test compounds. 17 hours after the sensitization, the test compounds (50 mg/kg) were orally administrated to sensitized animals. After one hour from the administration of the test compounds, the guinea pigs were placed in plastic observation box and were exposed to an aerosal antigen of 1.5% EWA. The time until the onset of respiratory […] symptom [collapse time (second)] was measured as a result of experimental asthma.

Acute toxicity = conditions: mouse, in vivo; male dd-mice, po, mortality for seven days
Method: The compounds were orally administrated (po: 300 mg/kg) to male dd-mice weighing 20 to 25 g. LD50 was determined by observing the mortality for seven days after the administration.

Structure (SMILES) | pIC50 [1] | Experimental asthma, collapse time (time until the onset of respiratory distresslike symptom) [2] | LD50 at 168 h (Acute toxicity)
Cn1c(=O)c2[nH]cnc2n(C)c1=O [Aminophylline, reference compound] | 4.64 |  | 
CCn1c(=O)c2c(ncn2C)c2ccccc21 [Compound 9, 5-Ethyl-3-methyl-3H,5H-imidazo[4,5,-c]quinolin-4-one] | 5.89 |  | 
CCCCn1c(=O)c2c(ncn2CC(C)=O)c2ccccc21 [Compound 6, 3-Acetonyl-5-n-butyl-3H,5H-imidazo[4,5,-c]quinolin-4-one] | 5.10 | 530 s | > 300 mg/kg
CCCCn1cnc2c3ccccc3n(CCCC)c(=O)c21 [Compound 5, 3,5-Di-n-Butyl-3H,5H-imidazo [4,5,-c] quinolin-4-one hydrochloride] |  |  | > 300 mg/kg
CCCCn1c(=O)c2c(ncn2CC(=O)O)c2ccccc21 [Compound 8, 5-n-Butyl-3-carboxymethyl-3H,5H-imidazo[4,5,-c]quinolin-4-one] | 5.17 |  | 
CCCCn1c(=O)c2c(ncn2CC)c2ccccc21.Cl [Compound 2, 5-n-Butyl-3-ethyl-3H,5H-imidazo[4,5-c]quinolin-4-one hydrochloride] | 5.70 |  | > 300 mg/kg
CCCCn1c(=O)c2c(ncn2C(C)C)c2ccccc21 [Compound 4, 5-n-Butyl-3-isopropyl-3H,5H-imidazo[4,5,-c]quinolin-4-one hydrochloride] | 5.43 |  | > 300 mg/kg
CCCCn1c(=O)c2c(ncn2CCC)c2ccccc21.Cl [Compound 3, 5-n-Butyl-3-n-propyl-3H,5H-imidazo[4,5-c]quinolin-4-one hydrochloride] | 5.17 | 348 s | > 300 mg/kg
CCCCn1c(=O)c2c(ncn2C)c2ccccc21 [Compound 1, 5-n-Butyl-3-methyl-3H,5H-imidazo[4,5,-c]quinolin-4-one] | 5.17 | 429 s | > 200 mg/kg
Cn1c(=O)c2[nH]cnc2n(C)c1=O [Theophylline, reference compound] |  | 414 s | 
CCCCn1c(=O)c2c(ncn2CC(=O)OC(C)(C)C)c2ccccc21 [Compound 7, 3-tert-Butoxycarbonylmethyl-5-n-butyl-3H,5H-imidazo[4,5-c]quinolin-4-one] | 6.33 |  | 
